Assay results reported in the supplement of paper PMC10307832.

Legend:
Test in all cases: relative viability (nuclei count vs DMSO), 5 days (fraction); higher = more cells survive
NCI-H838 = tested on: NCI-H838
In short: (§1)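 Relative viability is defined as nuclei in treated wells over nuclei in vehicle wells. Duplicate plates were run and medians reported. Lung cancer cell lines in 1536-well plates were dosed by pin tool one day after seeding, with one drug or with a fixed anchor-drug dose plus five library-drug doses (not always all listed) in √10 steps, and nuclei were counted after 5 days.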

NCI-H322M = tested on: NCI-H322M
In short: as §1

UMC-11 = tested on: UMC-11
In short: as §1

NCI-H1755 = tested on: NCI-H1755
In short: as §1

NCI-H2228 = tested on: NCI-H2228
In short: as §1

PC-14 = tested on: PC-14
In short: as §1

NCI-H1734 = tested on: NCI-H1734
In short: as §1

NCI-H1793 = tested on: NCI-H1793
In short: as §1

NCI-H647 = tested on: NCI-H647
In short: as §1

NCI-H2170 = tested on: NCI-H2170
In short: as §1

NCI-H1993 = tested on: NCI-H1993
In short: as §1

COR-L23 = tested on: COR-L23
In short: as §1

COR-L 105 = tested on: COR-L 105
In short: as §1

HARA = tested on: HARA
In short: as §1

NCI-H1355 = tested on: NCI-H1355
In short: as §1

NCI-H2009 = tested on: NCI-H2009
In short: as §1

HOP-62 = tested on: HOP-62
In short: as §1

NCI-H2347 = tested on: NCI-H2347
In short: as §1

EKVX = tested on: EKVX
In short: as §1

NCI-H1395 = tested on: NCI-H1395
In short: as §1

SK-MES-1 = tested on: SK-MES-1
In short: as §1

## COc1cc(N2CCC(C(N)=O)CC2)ccc1Nc1nc(N)c(Cl)c(Nc2ccccc2S(=O)(=O)C(C)C)n1 [HG-5-88-01] + CC1(C)CCC(c2ccc(Cl)cc2)=C(CN2CCN(c3ccc(C(=O)NS(=O)(=O)c4ccc(N[C@H](CCN5CCOCC5)CSc5ccccc5)c(S(=O)(=O)C(F)(F)F)c4)cc3)CC2)C1 [Navitoclax] (partner 0.5 µM)
NCI-H838; first compound 0.04 µM
  relative viability: 1.09
NCI-H838; first compound 0.1265 µM
  relative viability: 1.2
NCI-H838; first compound 0.4 µM
  relative viability: 1.07
NCI-H838; first compound 1.265 µM
  relative viability: 0.973
NCI-H838; first compound 4 µM
  relative viability: 0.904
NCI-H322M; first compound 0.04 µM
  relative viability: 1.16
NCI-H322M; first compound 0.1265 µM
  relative viability: 1.21
NCI-H322M; first compound 0.4 µM
  relative viability: 1.18
NCI-H322M; first compound 1.265 µM
  relative viability: 0.907
NCI-H322M; first compound 4 µM
  relative viability: 1.26
UMC-11; first compound 0.04 µM
  relative viability: 0.338
UMC-11; first compound 0.1265 µM
  relative viability: 0.376
UMC-11; first compound 0.4 µM
  relative viability: 0.333
UMC-11; first compound 1.265 µM
  relative viability: 0.322
UMC-11; first compound 4 µM
  relative viability: 0.303
NCI-H1755; first compound 0.1265 µM
  relative viability: 0.991
NCI-H1755; first compound 0.4 µM
  relative viability: 1.01
NCI-H1755; first compound 1.265 µM
  relative viability: 1.01
NCI-H1755; first compound 4 µM
  relative viability: 1.01
NCI-H2228; first compound 0.04 µM
  relative viability: 0.65
NCI-H2228; first compound 0.1265 µM
  relative viability: 0.295
NCI-H2228; first compound 0.4 µM
  relative viability: 0.485
NCI-H2228; first compound 1.265 µM
  relative viability: 0.417
NCI-H2228; first compound 4 µM
  relative viability: 0.27
PC-14; first compound 0.04 µM
  relative viability: 0.953
PC-14; first compound 0.1265 µM
  relative viability: 1.05
PC-14; first compound 0.4 µM
  relative viability: 0.995
PC-14; first compound 1.265 µM
  relative viability: 1.12
PC-14; first compound 4 µM
  relative viability: 0.272
NCI-H1734; first compound 0.04 µM
  relative viability: 0.771
NCI-H1734; first compound 0.1265 µM
  relative viability: 0.858
NCI-H1734; first compound 0.4 µM
  relative viability: 0.943
NCI-H1734; first compound 1.265 µM
  relative viability: 0.827
NCI-H1734; first compound 4 µM
  relative viability: 0.757
NCI-H1793; first compound 0.1265 µM
  relative viability: 0.409
NCI-H1793; first compound 0.4 µM
  relative viability: 0.473
NCI-H1793; first compound 1.265 µM
  relative viability: 0.296
NCI-H1793; first compound 4 µM
  relative viability: 0.438
NCI-H647; first compound 0.04 µM
  relative viability: 1.19
NCI-H647; first compound 0.1265 µM
  relative viability: 1.26
NCI-H647; first compound 0.4 µM
  relative viability: 1.24
NCI-H647; first compound 1.265 µM
  relative viability: 1.27
NCI-H647; first compound 4 µM
  relative viability: 1.13
NCI-H2170; first compound 0.04 µM
  relative viability: 0.554
NCI-H2170; first compound 0.1265 µM
  relative viability: 0.574
NCI-H2170; first compound 0.4 µM
  relative viability: 0.674
NCI-H2170; first compound 1.265 µM
  relative viability: 0.311
NCI-H2170; first compound 4 µM
  relative viability: 0.73
NCI-H1993; first compound 0.04 µM
  relative viability: 1.06
NCI-H1993; first compound 0.1265 µM
  relative viability: 0.976
NCI-H1993; first compound 0.4 µM
  relative viability: 0.911
NCI-H1993; first compound 1.265 µM
  relative viability: 0.736
NCI-H1993; first compound 4 µM
  relative viability: 0.735
COR-L23; first compound 0.04 µM
  relative viability: 0.936
COR-L23; first compound 0.1265 µM
  relative viability: 1
COR-L23; first compound 0.4 µM
  relative viability: 0.998
COR-L23; first compound 1.265 µM
  relative viability: 0.883
COR-L23; first compound 4 µM
  relative viability: 0.98
COR-L 105; first compound 0.04 µM
  relative viability: 0.644
COR-L 105; first compound 0.1265 µM
  relative viability: 0.833
COR-L 105; first compound 0.4 µM
  relative viability: 0.838
COR-L 105; first compound 1.265 µM
  relative viability: 0.645
COR-L 105; first compound 4 µM
  relative viability: 0.809
HARA; first compound 0.04 µM
  relative viability: 1.16
HARA; first compound 0.1265 µM
  relative viability: 1.14
HARA; first compound 0.4 µM
  relative viability: 1.13
HARA; first compound 1.265 µM
  relative viability: 1.19
HARA; first compound 4 µM
  relative viability: 1.18
NCI-H1355; first compound 0.04 µM
  relative viability: 1.01
NCI-H1355; first compound 0.1265 µM
  relative viability: 1.08
NCI-H1355; first compound 0.4 µM
  relative viability: 0.959
NCI-H1355; first compound 1.265 µM
  relative viability: 0.789
NCI-H1355; first compound 4 µM
  relative viability: 0.841
NCI-H2009; first compound 0.04 µM
  relative viability: 1.2
NCI-H2009; first compound 0.1265 µM
  relative viability: 1.32
NCI-H2009; first compound 0.4 µM
  relative viability: 1.15
NCI-H2009; first compound 1.265 µM
  relative viability: 1.06
NCI-H2009; first compound 4 µM
  relative viability: 1.15
HOP-62; first compound 0.04 µM
  relative viability: 0.987
HOP-62; first compound 0.1265 µM
  relative viability: 0.948
HOP-62; first compound 0.4 µM
  relative viability: 0.986
HOP-62; first compound 1.265 µM
  relative viability: 0.919
HOP-62; first compound 4 µM
  relative viability: 1.01
NCI-H2347; first compound 0.04 µM
  relative viability: 0.786
NCI-H2347; first compound 0.1265 µM
  relative viability: 0.863
NCI-H2347; first compound 0.4 µM
  relative viability: 0.893
NCI-H2347; first compound 1.265 µM
  relative viability: 0.696
NCI-H2347; first compound 4 µM
  relative viability: 0.685
EKVX; first compound 0.04 µM
  relative viability: 1.03
EKVX; first compound 0.1265 µM
  relative viability: 0.952
EKVX; first compound 0.4 µM
  relative viability: 0.634
EKVX; first compound 4 µM
  relative viability: 0.839
NCI-H1395; first compound 0.04 µM
  relative viability: 1.08
NCI-H1395; first compound 0.1265 µM
  relative viability: 1.18
NCI-H1395; first compound 0.4 µM
  relative viability: 1.25
NCI-H1395; first compound 1.265 µM
  relative viability: 1.03
NCI-H1395; first compound 4 µM
  relative viability: 1.09
SK-MES-1; first compound 0.04 µM
  relative viability: 1.17
SK-MES-1; first compound 0.1265 µM
  relative viability: 1.29
SK-MES-1; first compound 0.4 µM
  relative viability: 1.2
SK-MES-1; first compound 1.265 µM
  relative viability: 1.21
SK-MES-1; first compound 4 µM
  relative viability: 1.03
